From patent publication US20050069522A1, “Combination pharmaceutical agents as inhibitors of HCV replication” (priority 2002, published 2005)

System: HCV replicon (HCV 1b-377-neo replicon cells)
Assay: HCV replicon cell line FRET assay
Assay type: cell-based
Conditions: Hepatitis C virus; HCV replicon cell line, FRET assay; read-out: Replicon Inhibition Range EC50

SMILES	EC50 [µM]
Cc1cnc(CN2C(=O)C(c3ccc(NC(=O)[C@@H]4CCCN4C(=O)OCc4ccccc4)cc3)S/C2=N\c2ccc(N3CCOCC3)cc2)cn1 (some centres unmarked) [Compound 70]	< 0.1
Cc1cnc(CN2C(=O)C(c3ccc(NC(=O)[C@@H]4CCC(=O)N4C(=O)OCc4ccccc4)cc3)S/C2=N\c2ccc(N3CCOCC3)cc2)cn1 (some centres unmarked) [Compound 71]	< 0.1
C[C@H](NC(=O)OCc1ccccc1)C(=O)Nc1ccc(C2S/C(=N\c3ccc(N4CCOCC4)cc3)N(Cc3ccccn3)C2=O)cc1 (some centres unmarked) [Compound 72]	< 0.1
O=C(Nc1ccc(C2S/C(=N\c3ccc(N4CCOCC4)cc3)N(Cc3ccccn3)C2=O)cc1)[C@@H]1CCCN1C(=O)OCc1ccccc1 (some centres unmarked) [Compound 73]	< 0.1
C[C@@H](C(=O)Nc1ccc(C2S/C(=N\c3ccc(N4CCOCC4)cc3)N(Cc3ccccn3)C2=O)cc1)N(C)C(=O)OCc1ccccc1 (some centres unmarked) [Compound 74]	0.1 to 1
C[C@H](NC(=O)OCc1ccccc1)C(=O)Nc1ccc(C2S/C(=N\c3cccnc3)N(Cc3cccc(F)c3)C2=O)cc1 (some centres unmarked) [Compound 76]	< 0.1
O=C(Nc1ccc(C2S/C(=N\c3cccnc3)N(Cc3cccc(F)c3)C2=O)cc1)[C@@H]1CCCN1C(=O)OCc1ccccc1 (some centres unmarked) [Compound 77]	< 0.1
O=C(Nc1ccc(C2S/C(=N\c3ccc(N4CCOCC4)cc3)N(Cc3ccccn3)C2=O)cc1)[C@@H]1C[C@@H](O)CN1C(=O)OCc1ccccc1 (some centres unmarked) [Compound 78]	0.1 to 1
CC(C)(C)O[C@@H]1C[C@@H](C(=O)Nc2ccc(C3S/C(=N\c4ccc(N5CCOCC5)cc4)N(Cc4ccccn4)C3=O)cc2)N(C(=O)OCc2ccccc2)C1 (some centres unmarked) [Compound 79]	1 to 5
C[C@H](NC(=O)OCc1ccccc1)C(=O)Nc1ccc(C2S/C(=N\c3ccc(N4CCOCC4)cc3)N(Cc3cccnc3)C2=O)cc1 (some centres unmarked) [Compound 80]	0.1 to 1
C[C@H](NC(=O)OCc1ccccc1)C(=O)Nc1ccc(C2S/C(=N\c3ccc(N4CCOCC4)cc3)N(Cc3ccncc3)C2=O)cc1 (some centres unmarked) [Compound 82]	< 0.1
O=C(Nc1ccc(C2S/C(=N\c3ccc(N4CCOCC4)cc3)N(Cc3ccncc3)C2=O)cc1)[C@@H]1CCCN1C(=O)OCc1ccccc1 (some centres unmarked) [Compound 83]	< 0.1
CN=C1SC(c2ccc(NC(=O)[C@H](C)NC(=O)OCc3ccccc3)cc2)C(=O)N1Cc1ccccn1 (some centres unmarked) [Compound 84]	0.1 to 1
CN=C1SC(c2ccc(NC(=O)[C@@H]3CCCN3C(=O)OCc3ccccc3)cc2)C(=O)N1Cc1ccccn1 (some centres unmarked) [Compound 85]	< 0.1
C[C@H](NC(=O)OCc1ccccc1)C(=O)Nc1ccc(C2S/C(=N\Cc3ccccn3)N(C)C2=O)cc1 (some centres unmarked) [Compound 86]	1 to 5
CN1C(=O)C(c2ccc(NC(=O)[C@@H]3CCCN3C(=O)OCc3ccccc3)cc2)S/C1=N\Cc1ccccn1 (some centres unmarked) [Compound 87]	0.1 to 1
O=C(Nc1ccc(C2S/C(=N\c3ccc(N4CCOCC4)cc3)N(Cc3ccccn3)C2=O)cc1)[C@@H]1CCC(=O)N1C(=O)OCc1ccccc1 (some centres unmarked) [Compound 88]	< 0.1
CC(C)(C)/N=C1\SC(c2ccc(NC(=O)[C@@H]3CCCN3C(=O)OCc3ccccc3)cc2)C(=O)N1Cc1ccccn1 (some centres unmarked) [Compound 89]	0.1 to 1
CCOC(=O)/N=C1\SC(c2ccc(NC(=O)[C@@H]3CCCN3C(=O)OCc3ccccc3)cc2)C(=O)N1Cc1ccccn1 (some centres unmarked) [Compound 91]	< 0.1
CCOC(=O)/N=C1\SC(c2ccc(NC(=O)[C@H](C)NC(=O)OCc3ccccc3)cc2)C(=O)N1Cc1cccnc1 (some centres unmarked) [Compound 92]	< 0.1

SMILES	EC50 [µM]
O=C(Nc1ccc(C2S/C(=N\c3ccc(N4CCOCC4)cc3)N(c3ccccn3)C2=O)cc1)[C@@H]1CCCN1C(=O)OCc1ccccc1 (some centres unmarked) [Compound 94]	< 0.1
Cc1cnc(CN2C(=O)C(c3ccc(NC(=O)[C@@H]4CCCN4C(=O)Cc4ccccc4)cc3)S/C2=N\c2ccc(N3CCOCC3)cc2)cn1 (some centres unmarked) [Compound 95]	< 0.1
C[C@H](NC(=O)Cc1ccccc1)C(=O)Nc1ccc(C2S/C(=N\c3cccc(F)c3)N(Cc3ccccn3)C2=O)cc1 (some centres unmarked) [Compound 96]	< 0.1
O=C(Nc1ccc(C2S/C(=N\c3cccc(F)c3)N(Cc3ccccn3)C2=O)cc1)[C@@H]1CCCN1C(=O)Cc1ccccc1 (some centres unmarked) [Compound 97]	< 0.1
O=C(Nc1ccc(C2S/C(=N\c3ccc(N4CCOCC4)cc3)N(Cc3ccccn3)C2=O)cc1)[C@@H]1CCCN1C(=O)Cc1ccccc1 (some centres unmarked) [Compound 98]	< 0.1
C[C@H](NC(=O)Cc1ccccc1)C(=O)Nc1ccc(C2S/C(=N\c3ccc(N4CCOCC4)cc3)N(Cc3ccccn3)C2=O)cc1 (some centres unmarked) [Compound 99]	< 0.1
O=C(Nc1ccc(C2S/C(=N\c3cccnc3)N(Cc3cccc(F)c3)C2=O)cc1)[C@@H]1CCCN1C(=O)Cc1ccccc1 (some centres unmarked) [Compound 100]	< 0.1
C/N=C1\SC(c2ccc(NC(=O)[C@@H]3CCCN3C(=O)Cc3ccccc3)cc2)C(=O)N1Cc1ccccn1 (some centres unmarked) [Compound 101]	< 0.1
CC(C)/N=C1\SC(c2ccc(NC(=O)[C@H](C)NC(=O)Cc3ccccc3)cc2)C(=O)N1Cc1ccccn1 (some centres unmarked) [Compound 102]	< 0.1
CN(C)c1ccc(CC(=O)N2CCC[C@H]2C(=O)Nc2ccc(C3S/C(=N\c4ccc(N5CCOCC5)cc4)N(Cc4ccccn4)C3=O)cc2)cc1 (some centres unmarked) [Compound 103]	0.1 to 1
O=C(Nc1ccc(C2S/C(=N\c3ccc(N4CCOCC4)cc3)N(Cc3ccccn3)C2=O)cc1)[C@@H]1CCCN1C(=O)Cc1c(Cl)cccc1Cl (some centres unmarked) [Compound 104]	< 0.1
O=C(Nc1ccc(C2S/C(=N\c3ccc(N4CCOCC4)cc3)N(Cc3ccccn3)C2=O)cc1)[C@@H]1CCCN1C(=O)C1(c2ccc(F)cc2)CCCC1 (some centres unmarked) [Compound 105]	0.1 to 1
COc1ccc(CC(=O)N2CCC[C@H]2C(=O)Nc2ccc(C3S/C(=N\c4ccc(N5CCOCC5)cc4)N(Cc4ccccn4)C3=O)cc2)cc1 (some centres unmarked) [Compound 106]	0.1 to 1
O=C(Nc1ccc(C2S/C(=N\c3ccc(N4CCOCC4)cc3)N(Cc3ccccn3)C2=O)cc1)[C@@H]1CCCN1C(=O)C(c1ccccc1)c1ccccc1 (some centres unmarked) [Compound 107]	< 0.1
O=C(Nc1ccc(C2S/C(=N\c3ccc(N4CCOCC4)cc3)N(Cc3ccccn3)C2=O)cc1)[C@@H]1CCCN1C(=O)Cc1ccccc1Cl (some centres unmarked) [Compound 108]	< 0.1
O=C(Nc1ccc(C2S/C(=N\c3ccc(N4CCOCC4)cc3)N(Cc3ccccn3)C2=O)cc1)[C@@H]1CCCN1C(=O)Cc1ccc(C(F)(F)F)cc1 (some centres unmarked) [Compound 109]	1 to 5
O=C(Nc1ccc(C2S/C(=N\c3ccc(N4CCOCC4)cc3)N(Cc3ccccn3)C2=O)cc1)[C@@H]1CCCN1C(=O)C(F)c1ccccc1 (some centres unmarked) [Compound 110]	< 0.1
C/N=C1\SC(c2ccc(NC(=O)[C@H](C)NC(=O)C(c3ccccc3)c3ccccc3)cc2)C(=O)N1Cc1ccccn1 (some centres unmarked) [Compound 111]	< 0.1
C[C@H](NC(=O)C(c1ccccc1)c1ccccc1)C(=O)Nc1ccc(C2S/C(=N\c3ccc(N4CCOCC4)cc3)N(Cc3ccccn3)C2=O)cc1 (some centres unmarked) [Compound 112]	< 0.1
O=C(Nc1ccc(C2S/C(=N\c3ccc(N4CCOCC4)cc3)N(Cc3ccccn3)C2=O)cc1)[C@@H]1CCC(=O)N1C(=O)C(c1ccccc1)c1ccccc1 (some centres unmarked) [Compound 113]	0.1 to 1

SMILES	EC50 [µM]
C[C@H](C(=O)N1CCC[C@H]1C(=O)Nc1ccc(C2S/C(=N\c3ccc(N4CCOCC4)cc3)N(Cc3ccccn3)C2=O)cc1)c1ccccc1 (some centres unmarked) [Compound 114]	< 0.1
C[C@@H](C(=O)N1CCC[C@H]1C(=O)Nc1ccc(C2S/C(=N\c3ccc(N4CCOCC4)cc3)N(Cc3ccccn3)C2=O)cc1)c1ccccc1 (some centres unmarked) [Compound 115]	< 0.1
CO[C@@H](C(=O)N1CCC[C@H]1C(=O)Nc1ccc(C2S/C(=N\c3ccc(N4CCOCC4)cc3)N(Cc3ccccn3)C2=O)cc1)c1ccccc1 (some centres unmarked) [Compound 116]	< 0.1
CO[C@H](C(=O)N1CCC[C@H]1C(=O)Nc1ccc(C2S/C(=N\c3ccc(N4CCOCC4)cc3)N(Cc3ccccn3)C2=O)cc1)c1ccccc1 (some centres unmarked) [Compound 117]	< 0.1
O=C(Nc1ccc(C2S/C(=N\c3ccc(N4CCOCC4)cc3)N(Cc3ccccn3)C2=O)cc1)[C@@H]1CCCN1C(=O)C1(c2ccccc2)CC1 (some centres unmarked) [Compound 118]	< 0.1
O=C(C(=O)N1CCC[C@H]1C(=O)Nc1ccc(C2S/C(=N\c3ccc(N4CCOCC4)cc3)N(Cc3ccccn3)C2=O)cc1)c1ccccc1 (some centres unmarked) [Compound 119]	< 0.1
CC(C)/N=C1\SC(c2ccc(NC(=O)[C@H](C)NC(=O)[C@@H](O)c3ccccc3)cc2)C(=O)N1Cc1ccccn1 (some centres unmarked) [Compound 120]	< 0.1
CC(C)/N=C1\SC(c2ccc(NC(=O)[C@H](C)NC(=O)[C@@H](C)c3ccccc3)cc2)C(=O)N1Cc1ccccn1 (some centres unmarked) [Compound 121]	0.1 to 1
CO[C@H](C(=O)N[C@@H](C)C(=O)Nc1ccc(C2S/C(=N\C(C)C)N(Cc3ccccn3)C2=O)cc1)c1ccccc1 (some centres unmarked) [Compound 122]	< 0.1
CC(C)/N=C1\SC(c2ccc(NC(=O)[C@H](C)NC(=O)C(c3ccccc3)c3ccccc3)cc2)C(=O)N1Cc1ccccn1 (some centres unmarked) [Compound 123]	< 0.1
C[C@H](NC(=O)CCc1ccccc1)C(=O)Nc1ccc(C2S/C(=N\c3cccc(F)c3)N(Cc3ccco3)C2=O)cc1 (some centres unmarked) [Compound 125]	1 to 5
C[C@H](NC(=O)c1ccccc1)C(=O)Nc1ccc(C2S/C(=N\c3cccc(F)c3)N(Cc3ccco3)C2=O)cc1 (some centres unmarked) [Compound 126]	1 to 5
O=C(Nc1ccc(C2S/C(=N\c3cccc(F)c3)N(Cc3ccco3)C2=O)cc1)[C@@H]1CCCN1C(=O)Cc1ccc(Cl)cc1 (some centres unmarked) [Compound 128]	0.1 to 1
O=C(Nc1ccc(C2S/C(=N\c3cccc(F)c3)N(Cc3ccco3)C2=O)cc1)[C@@H]1CCCN1C(=O)Cc1ccncc1 (some centres unmarked) [Compound 129]	0.1 to 1
O=C(Nc1ccc(C2S/C(=N\c3cccc(F)c3)N(Cc3ccco3)C2=O)cc1)[C@@H]1CCCN1C(=O)COc1ccccc1 (some centres unmarked) [Compound 130]	0.1 to 1
O=C(Nc1ccc(C2S/C(=N\c3ccc(N4CCOCC4)cc3)N(Cc3ccccn3)C2=O)cc1)[C@@H]1CCCN1S(=O)(=O)Cc1ccccc1 (some centres unmarked) [Compound 132]	1 to 5
C[C@H](NC(=O)NCc1ccccc1)C(=O)Nc1ccc(C2S/C(=N\c3cccc(F)c3)N(Cc3ccco3)C2=O)cc1 (some centres unmarked) [Compound 133]	0.1 to 1
C[C@H](NC(=O)Nc1ccccc1)C(=O)Nc1ccc(C2S/C(=N\c3cccc(F)c3)N(Cc3ccco3)C2=O)cc1 (some centres unmarked) [Compound 134]	1 to 5
O=C(Nc1ccc(C2S/C(=N\c3ccc(N4CCOCC4)cc3)N(Cc3ccccn3)C2=O)cc1)[C@@H]1CCCN1C(=O)NCc1ccccc1 (some centres unmarked) [Compound 135]	< 0.1
